Assay results: patent US9796711B2, “Substituted pyrazolo[3,4-b]pyridin-6-carboxylic acids and method of use” (AbbVie S.àr.l., priority 2015, dated 2017)

Tests used:
ΔF508-CFTR [1] = molecular target: T1, ΔF508-CFTR (Homo sapiens, UniProt P13569, DEL508-508); assay: CFTR cell surface levels using HRP-tagged ΔF508-CFTR expressing CFBE cells, intrinsic corrector capacity; type: cell-based; settings: HRP-tagged ΔF508-CFTR expressing CFBE cells, intrinsic corrector capacity (no co-corrector), 33° C., 20 hours; for EC50: read-out: EC50
T1 construct: host or cells: CFBE41o-, doxycycline-inducible
T1 sequence (P13569 with tags, fused parts or gaps DEL508-508): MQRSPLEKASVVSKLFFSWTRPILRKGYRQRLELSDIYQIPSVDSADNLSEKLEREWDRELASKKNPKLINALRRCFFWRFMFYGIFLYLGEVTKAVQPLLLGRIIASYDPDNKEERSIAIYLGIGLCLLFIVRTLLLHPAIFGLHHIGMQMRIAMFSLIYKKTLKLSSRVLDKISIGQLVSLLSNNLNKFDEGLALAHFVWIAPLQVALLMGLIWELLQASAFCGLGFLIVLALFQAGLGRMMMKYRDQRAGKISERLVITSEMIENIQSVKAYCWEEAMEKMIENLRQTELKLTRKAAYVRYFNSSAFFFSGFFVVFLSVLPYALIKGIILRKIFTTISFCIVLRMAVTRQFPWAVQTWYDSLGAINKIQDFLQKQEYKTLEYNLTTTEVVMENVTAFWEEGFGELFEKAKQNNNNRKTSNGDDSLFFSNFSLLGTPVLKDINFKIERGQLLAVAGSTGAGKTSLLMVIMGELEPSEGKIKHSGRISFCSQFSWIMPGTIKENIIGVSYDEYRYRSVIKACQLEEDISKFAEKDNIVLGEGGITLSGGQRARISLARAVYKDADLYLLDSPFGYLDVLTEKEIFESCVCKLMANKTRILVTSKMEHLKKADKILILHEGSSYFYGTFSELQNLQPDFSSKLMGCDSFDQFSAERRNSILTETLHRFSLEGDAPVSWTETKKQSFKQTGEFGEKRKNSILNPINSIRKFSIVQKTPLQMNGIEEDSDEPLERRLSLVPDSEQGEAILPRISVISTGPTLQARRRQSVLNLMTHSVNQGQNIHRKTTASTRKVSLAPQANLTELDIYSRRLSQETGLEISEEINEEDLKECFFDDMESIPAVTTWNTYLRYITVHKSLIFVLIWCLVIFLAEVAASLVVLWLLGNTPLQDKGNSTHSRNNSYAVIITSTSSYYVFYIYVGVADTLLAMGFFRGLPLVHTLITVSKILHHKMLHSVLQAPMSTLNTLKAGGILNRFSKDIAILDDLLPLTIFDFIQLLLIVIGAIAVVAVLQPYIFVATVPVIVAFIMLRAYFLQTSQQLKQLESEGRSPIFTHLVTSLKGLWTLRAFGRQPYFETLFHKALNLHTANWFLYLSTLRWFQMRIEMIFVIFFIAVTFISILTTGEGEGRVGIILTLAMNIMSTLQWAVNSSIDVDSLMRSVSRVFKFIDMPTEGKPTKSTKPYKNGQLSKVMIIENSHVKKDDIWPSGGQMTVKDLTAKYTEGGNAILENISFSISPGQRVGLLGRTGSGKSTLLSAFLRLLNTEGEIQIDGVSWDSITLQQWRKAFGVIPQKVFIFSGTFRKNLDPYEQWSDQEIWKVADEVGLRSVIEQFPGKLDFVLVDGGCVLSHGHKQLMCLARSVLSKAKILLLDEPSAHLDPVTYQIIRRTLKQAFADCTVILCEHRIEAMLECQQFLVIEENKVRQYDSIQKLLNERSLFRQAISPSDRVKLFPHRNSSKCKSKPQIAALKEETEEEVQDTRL
Procedure, shortened: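 Here the cells express ΔF508-CFTR with horseradish peroxidase inserted in extracellular loop 4, so only rescued channel at the surface gives luminescent signal. Compounds act on their own, 20 h at the reduced temperature of 33 °C; values are percent activity relative to DMSO and a 3 μM corrector.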

ΔF508-CFTR [2] = molecular target: T1, ΔF508-CFTR; assay: CFTR cell surface levels using HRP-tagged ΔF508-CFTR expressing CFBE cells, in the presence of a co-corrector; type: cell-based; settings: HRP-tagged ΔF508-CFTR expressing CFBE cells, in the presence of 3 μM co-corrector; for EC50: read-out: EC50
Procedure, shortened: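 Cells were seeded with 0.5 μg/mL doxycycline and held 68 h at 37 °C. Test compounds plus 3 μM co-corrector (final 0.1% DMSO) were then added for 20 h at 33 °C. Washed cells received HRP substrate, and luminescence was normalized between DMSO and 3 μM co-corrector controls.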

SMILES | % Activation (ΔF508-CFTR [1]) | EC50 (ΔF508-CFTR [1]) | % Activation (ΔF508-CFTR [2]) | EC50 (ΔF508-CFTR [2])
CC(C)c1nn(-c2ccc(F)cc2)c2nc(C(=O)O)cc(N3CCN(C(=O)N(C)C)CC3)c12 [compound 774, 4-[4-(dimethylcarbamoyl)piperazin-1-yl]-1-(4-fluorophenyl)-3-(propan-2-yl)-1H-pyrazolo[3,4-b]pyridine-6-carboxylic acid] | 163% | 1.67 µM | 375.6% | 1.67 µM
CCOCC(=O)N1CCN(c2cc(C(=O)O)nc3c2c(C(C)C)nn3-c2ccc(F)cc2)CC1 [compound 775, 4-[4-(ethoxyacetyl)piperazin-1-yl]-1-(4-fluorophenyl)-3-(propan-2-yl)-1H-pyrazolo[3,4-b]pyridine-6-carboxylic acid] | 93.07% | 1.67 µM | 262.4% | 1.67 µM
COCCCN1CCN(c2cc(C(=O)O)nc3c2c(C(C)C)nn3-c2ccc(F)cc2)CC1 [compound 776, 1-(4-fluorophenyl)-4-[4-(3-methoxypropyl)piperazin-1-yl]-3-(propan-2-yl)-1H-pyrazolo[3,4-b]pyridine-6-carboxylic acid] | 113.2% | 1.67 µM | 261.4% | 0.531 µM
CCCN1CCN(c2cc(C(=O)O)nc3c2c(C(C)C)nn3-c2ccc(F)cc2)CC1 [compound 777, 1-(4-fluorophenyl)-3-(propan-2-yl)-4-(4-propylpiperazin-1-yl)-1H-pyrazolo[3,4-b]pyridine-6-carboxylic acid] | 95% | 1.67 µM | 254.9% | 0.955 µM
CC(C)c1nn(-c2ccc(F)cc2)c2nc(C(=O)O)cc(N3CCN(CCOCCO)CC3)c12 [compound 778, 1-(4-fluorophenyl)-4-{4-[2-(2-hydroxyethoxy)ethyl]piperazin-1-yl}-3-(propan-2-yl)-1H-pyrazolo[3,4-b]pyridine-6-carboxylic acid] | 9.442% | 5 µM | 149% | 1.67 µM
CC(C)c1nn(-c2ccc(F)cc2)c2nc(C(=O)O)cc(N3CCN(CCC(=O)N4CCCN(C)CC4)CC3)c12 [compound 779, 1-(4-fluorophenyl)-4-{4-[3-(4-methyl-1,4-diazepan-1-yl)-3-oxopropyl]piperazin-1-yl}-3-(propan-2-yl)-1H-pyrazolo[3,4-b]pyridine-6-carboxylic acid] | 6.923% | 5 µM | 121.2% | 5 µM
CC(C)c1nn(-c2ccc(F)cc2)c2nc(C(=O)O)cc(N3CCC(CC4CCCCC4)CC3)c12 [compound 780, 4-[4-(cyclohexylmethyl)piperidin-1-yl]-1-(4-fluorophenyl)-3-(propan-2-yl)-1H-pyrazolo[3,4-b]pyridine-6-carboxylic acid] | 233.5% | 0.249 µM | 429.5% | 0.124 µM
CC(C)c1nn(-c2ccc(F)cc2)c2nc(C(=O)O)cc(N3CCC4(CCN(C)CC4)CC3)c12 [compound 781, 1-(4-fluorophenyl)-4-(9-methyl-3,9-diazaspiro[5.5]undecan-3-yl)-3-(propan-2-yl)-1H-pyrazolo[3,4-b]pyridine-6-carboxylic acid] | 154% | 1.67 µM | 368.7% | 1.56 µM
CC(C)c1nn(-c2ccc(F)cc2)c2nc(C(=O)O)cc(N3CCC4(CC3)OCCO4)c12 [compound 782, 4-(1,4-dioxa-8-azaspiro[4.5]decan-8-yl)-1-(4-fluorophenyl)-3-(propan-2-yl)-1H-pyrazolo[3,4-b]pyridine-6-carboxylic acid] | 174.4% | 0.673 µM | 345.2% | 0.272 µM
CC(C)c1nn(-c2ccc(F)cc2)c2nc(C(=O)O)cc(N3CCC[C@@H](O)C3)c12 [compound 783, 1-(4-fluorophenyl)-4-[(3R)-3-hydroxypiperidin-1-yl]-3-(propan-2-yl)-1H-pyrazolo[3,4-b]pyridine-6-carboxylic acid] | 95.05% | 1.67 µM | 283.6% | 1.67 µM
